According to patent publication US6228861A, “Dihydropyrimidines and uses thereof” (Synaptic Pharmaceutical Corporation, priority 1998, dated 2001):
Like-named read-outs stand apart in the source and are kept apart here.

Key:
[1] = literature, BPH patients; cited from earlier work
[2] = cited from earlier work
[3] = biological target: T1, α1B Human Adrenergic Receptor (Homo sapiens, UniProt P35368); experiment: [3H]prazosin radioligand binding, cloned human α1B receptor; details: LM(tk-) membranes, [3H]prazosin 0.5 nM, 37° C., 20 min
T1 construct: The entire coding region of α1B (1563 bp); expressed in transfected cells; membranes
T1 sequence (P35368 1-520): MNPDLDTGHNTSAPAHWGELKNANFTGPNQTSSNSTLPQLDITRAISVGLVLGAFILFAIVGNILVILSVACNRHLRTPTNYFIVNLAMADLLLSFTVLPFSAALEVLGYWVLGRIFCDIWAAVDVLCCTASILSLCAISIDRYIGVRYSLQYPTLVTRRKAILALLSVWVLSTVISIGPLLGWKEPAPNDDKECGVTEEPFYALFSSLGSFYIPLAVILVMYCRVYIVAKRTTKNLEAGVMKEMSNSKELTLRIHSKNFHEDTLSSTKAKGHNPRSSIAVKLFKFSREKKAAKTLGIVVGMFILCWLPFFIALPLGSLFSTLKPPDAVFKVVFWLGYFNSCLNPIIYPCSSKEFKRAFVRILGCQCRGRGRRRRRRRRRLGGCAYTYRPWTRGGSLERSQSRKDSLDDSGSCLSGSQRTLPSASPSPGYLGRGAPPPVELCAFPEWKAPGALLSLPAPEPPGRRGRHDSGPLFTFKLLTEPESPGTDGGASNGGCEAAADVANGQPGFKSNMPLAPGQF
Method: (§1) Binding affinities were measured for selected compounds of the invention at six cloned human alpha-1 and alpha-2 receptor subtypes, as well as at the L-type calcium channel. The protocols for these experiments are given below.
(§2) The activity of compounds at the different human receptors was determined in vitro using cultured cell lines that selectively express the receptor of interest. These cell lines were prepared by transfecting the cloned cDNA or cloned genomic DNA or constructs containing both genomic DNA and cDNA encoding the human α-adrenergic receptors as follows:
(§3) The construct involved the ligation of partial overlapping human lymphocyte genomic and hippocampal cDNA clones: 5' sequence were contained on a 1.2 kb SmaI-XhoI genomic fragment (the vector-derived -BamHI site was used for subcloning instead of the internal insert-derived SmaI site) and 3' sequences were contained on an 1.3 kb XhoI-ClaI cDNA fragment (the ClaI site was from the vector polylinker). […]
(§4) Transfected cells from culture flasks were scraped into 5 ml of 5 mM Tris-HCl, 5 mM EDTA, pH 7.5, and lysed by sonication. […] Nonspecific binding was determined in the presence of 10 μM phentolamine. […] Inhibition experiments, routinely consisting of 7 concentrations of the tested compounds, were analyzed using a non-linear regression curve-fitting computer program to obtain Ki values.

[4] = biological target: T2, α1A Human Adrenergic Receptor (Homo sapiens, UniProt P35348); experiment: [3H]prazosin radioligand binding, cloned human α1A receptor; details: LM(tk-) membranes, [3H]prazosin 0.5 nM, 37° C., 20 min
T2 construct: The entire coding region of α1A (1401 bp); expressed in transfected cells; membranes
T2 sequence (P35348 1-466): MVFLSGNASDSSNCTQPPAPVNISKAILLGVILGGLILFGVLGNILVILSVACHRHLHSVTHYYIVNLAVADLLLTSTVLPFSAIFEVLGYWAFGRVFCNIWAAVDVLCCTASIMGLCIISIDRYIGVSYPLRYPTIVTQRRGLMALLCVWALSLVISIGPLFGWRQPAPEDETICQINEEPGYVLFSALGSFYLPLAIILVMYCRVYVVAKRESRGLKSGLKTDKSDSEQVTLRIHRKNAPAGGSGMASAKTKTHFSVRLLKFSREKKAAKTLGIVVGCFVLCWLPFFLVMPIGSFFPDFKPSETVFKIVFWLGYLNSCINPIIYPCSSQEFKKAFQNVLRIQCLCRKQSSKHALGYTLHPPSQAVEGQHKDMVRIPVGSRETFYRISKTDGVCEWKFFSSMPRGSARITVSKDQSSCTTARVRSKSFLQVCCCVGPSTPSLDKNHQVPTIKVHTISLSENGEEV
Method: as §1, §2, §3
Transfected cells from culture flasks were scraped into 5 ml of 5 mM Tris-HCl, 5 mM EDTA, pH 7.5, and lysed by sonication. […] Nonspecific binding was determined in the presence of 10 μM phentolamine. […]

[5] = biological target: T3, α1D Human Adrenergic Receptor (Homo sapiens, UniProt P25100); experiment: [3H]prazosin radioligand binding, cloned human α1D receptor; details: LM(tk-) membranes, [3H]prazosin 0.5 nM, 37° C., 20 min
T3 construct: The entire coding region of α1D (1719 bp); expressed in transfected cells; membranes
T3 sequence (P25100 1-572): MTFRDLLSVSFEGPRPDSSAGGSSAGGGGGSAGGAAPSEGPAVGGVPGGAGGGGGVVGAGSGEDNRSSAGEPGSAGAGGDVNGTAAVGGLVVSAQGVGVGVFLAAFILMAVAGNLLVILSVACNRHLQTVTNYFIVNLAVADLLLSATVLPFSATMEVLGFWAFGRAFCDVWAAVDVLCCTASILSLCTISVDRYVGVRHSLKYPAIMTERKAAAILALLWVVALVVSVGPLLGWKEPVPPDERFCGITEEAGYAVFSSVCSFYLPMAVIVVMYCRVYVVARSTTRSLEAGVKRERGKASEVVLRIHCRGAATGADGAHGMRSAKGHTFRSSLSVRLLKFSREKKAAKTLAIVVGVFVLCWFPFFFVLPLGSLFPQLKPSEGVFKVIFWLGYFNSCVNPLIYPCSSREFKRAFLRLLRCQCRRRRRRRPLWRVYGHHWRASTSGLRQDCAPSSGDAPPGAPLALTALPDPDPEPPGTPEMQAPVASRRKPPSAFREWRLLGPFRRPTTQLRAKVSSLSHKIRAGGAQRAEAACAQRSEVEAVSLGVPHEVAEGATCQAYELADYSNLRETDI
Method: as §1, §2
The entire coding region of α1D (1719 bp), including 150 base pairs of 5' untranslated sequence t5' UT) and 300 bp of 3' untranslated sequence (3' UT), was cloned into the BamHI and ClaI sites of the polylinker-modified eukaryotic expression vector pCEXV-3, called EXJ.HR. […]
as §4

Structure (SMILES)	usefulness in BPH [1]	side effects ([2]; literature)	further results
COc1cc2nc(N3CCN(C(=O)C4CCCO4)CC3)nc(N)c2cc1OC (stereo not shown) [terazosin]	useful for treating BPH	untoward side effects	–
COCC1=C(C(C)=O)C(c2cc(F)c(F)c(F)c2)N(C(=O)NCCN[C@H]2CC[C@](C#N)(c3ccccc3)CC2)C(=O)N1.Cl (stereo partly drawn) [Example 2, cis-6-(3,4,5-Trifluorophenyl)-1-{N-[2-(4-cyano-4 phenyl-cyclohexylamino)ethyl]}-carboxamido-5-acetyl-4-methoxymethyl-2-oxo-1,2,3,6 - tetrahydropyrimidine hydrochloride]	–	–	hα1B pKi [3]: 7.76; hα1A pKi [4]: 9.51; hα1D pKi [5]: 7.05
COc1cc2nc(N3CCN(C(=O)c4ccco4)CC3)nc(N)c2cc1OC [prazosin]	useful for treating BPH	–	side effects ([2]; in vivo): untoward side effects
Clc1cccc(Cl)c1N=C1NCCN1 [clonidine]	–	dry mouth and sedation	–
CC(COc1ccccc1)N(CCCl)Cc1ccccc1 (stereo not shown) [phenoxybenzamine]	useful in relieving the symptoms of BPH	significant side effects such as dizziness and asthenia	–
